Measurements taken from publication PMC7743076 (bioRxiv, 2021).
Structures can show the parent of a compound that is named as a salt. Where two headings read alike, the source gives them in different places.

Tests used:
[1] = tested on: SARS-2-PV bearing spike from ancestral strain Wuhan-1, entry into 293T-ACE2-TMPRSS2 cells; assay type: cell-based, SARS-CoV-2; conditions: for IC50: read-out: IC50, PV entry efficiency
[2] = cited from earlier work; for pKa: ref published literature and PubChem
[3] = tested on: authentic SARS-CoV-2 (Wuhan-1) in Vero E6-TMPRSS2 cells; assay type: cell-based
[4] = tested on: SARS-CoV-2 (Wuhan-1) infection in Vero E6 cells; test: Authentic SARS-CoV-2; assay type: cell-based; conditions: preliminary dose ranging
[5] = tested on: SARS-CoV-2 (isolate USA-WA1/2020 or Wuhan-1); parameters: species or system Syrian hamsters (Mesocricetus auratus); conditions: hamster, in vivo
[6] = 120 mg/kg IP, mice; cited from earlier work
[7] = drug with two pKa values printed

SMILES: NCCCNCCSP(=O)(O)O [Amifostine]
- Inhibition of SARS-2-PV entry (in words) [1]: did not inhibit virus entry

SMILES: CC(C)(S)C(=O)N[C@@H](CS)C(=O)O [Bucillamine]
- pKa [2, 7]: 10.2
- pKa ([2]; thiol pKa): 8.4

SMILES: N[C@@H](CSCC(=O)O)C(=O)O [Carbocysteine]
- Inhibition of SARS-2-PV entry (in words) [1]: did not inhibit virus entry
- Virus-induced cytopathic effects (in words) [3]: not effective

SMILES: NCCS [Cysteamine]
- Virus-induced cytopathic effects (in words) [4]: very effective at decreasing virus-induced cytopathic effects
- pKa ([2]; thiol pKa): 8.2
- IC50 [1]: ~1000 µM
- Alveolar hemorrhage scores [5]: significantly lower than in the control group
- Histopathology scores for mixed cell lung inflammation [5]: significantly lower than in the control group
- Lung weights (normalized to terminal body weights) [5]: significantly lower than in the control group
- Lymphocytes in BAL [5]: decreases
- Neutrophils in BAL [5]: decreases
- Total cell counts in BAL [5]: lower than in control treated animals
- Total protein in BAL [5]: lower
- Viral N2 gene transcripts in lung tissue [5]: not significantly lower than in controls
- Virus-induced cytopathic effects (in words) [3]: significantly decreased virus-induced cytopathic effects

SMILES: O=S(=O)(O)CCS [Mesna, 2-mercaptoethane sulfonate, sodium salt]
- pKa ([2]; thiol pKa): > 9

SMILES: O=C(O)[C@@H](S)[C@@H](S)C(=O)O [Succimer, Dimercaptosuccinic acid]
- pKa [2, 7]: 10.8
- pKa ([2]; thiol pKa): 8.9

SMILES: CO[C@H]1O[C@H](CS)[C@H](O)[C@H](O)[C@H]1O [TDG, methyl 6-thio-6-deoxy-α-D-galactopyranoside]
- reported pKa ([2]; TDG, thiol pKa, reported, reference not given): 9.6

SMILES: NCCCNCCS [WR-1065]
- Virus-induced cytopathic effects (in words) [4]: very effective at decreasing virus-induced cytopathic effects
- IC50 [1]: ~1000 µM

SMILES: Cl.NCCS [cysteamine hydrochloride]
- Peak plasma concentration [6]: 0.6 mM
- Time of peak plasma concentration after administration [6]: ≤ 5 min
